According to US4075339A, “Biologically active compounds” (University of Illinois Foundation, priority 1976, dated 1978):
≈ marks a conversion by molar mass, not a printed value.

How the values were obtained:
[1] = test system: D. penumoniae; test: Bacterial inhibition, MIC in brain heart infusion broth; type: cell-based; settings: read-out: MIC (minimal inhibitory concentration)
Source text: (§1) ^a Minimal inhibitory concentration in brain heart infusion broth.

[2] = test system: E. coli; test: as above; type: cell-based; settings: Escherichia coli, read-out: MIC (minimal inhibitory concentration)
Source text: as §1

[3] = test system: K. pneumoniae; test: as above; type: cell-based; settings: Klebsiella pneumoniae, read-out: MIC (minimal inhibitory concentration)
Source text: as §1

[4] = test system: P. vulgaris; test: as above; type: cell-based; settings: Proteus vulgaris, read-out: MIC (minimal inhibitory concentration)
Source text: as §1

[5] = test system: Ps. aeruginosa; test: as above; type: cell-based; settings: Pseudomonas aeruginosa, read-out: MIC (minimal inhibitory concentration)
Source text: as §1

[6] = test system: S. Hemolyticus; test: as above; type: cell-based; settings: read-out: MIC (minimal inhibitory concentration)
Source text: as §1

[7] = test system: S. aureus; test: as above; type: cell-based; settings: Staphylococcus aureus, read-out: MIC (minimal inhibitory concentration)
Source text: as §1

[8] = test system: St. Faecalis; test: as above; type: cell-based; settings: Enterococcus faecalis, read-out: MIC (minimal inhibitory concentration)
Source text: as §1

[9] = biological target: E. coli RNA Polymerase (Escherichia coli, UniProt P0A8V2); test: E. coli RNA Polymerase Inhibition; type: biochemical; settings: 0.25 h; for remaining activity at 500 µM: 0.5 μM/ml of compound, room temperature, 15 minutes, control = 100; for inhibition at 500 µM: at a concentration of 0.5 μmole/ml (Table 4)
Protocol: The assay mixtures contained, in a total volume of 0.25 ml: (Tris)HCl
buffer, pH 7.9, 5 μmoles; MgCl2, 1 μmole; mercaptoethanol, 3
μmoles; MpCl2, 0.25 μmole: GTP, UTP, and CTP, 0.1 μmole
polymerase, 0.5 units; and […] of compound. Reactions were run a
room temperature for 15 minutes.
(§2) Table 4, below, relates to the activity of compounds of Examples VIII through XVIII as bacterial RNA polymerase inhibitors and as inhibitors of reverse transcriptase when tested in the manner the compounds of Examples I through V as related, supra, in Tables 2 and 3.
*At a concentration of 0.5 μmole/ml.

[10] = test system: Reverse Transcriptase of Rauscher Leukemia Virus; test: Inhibition of Reverse Transcriptase of Rauscher Leukemia Virus; type: biochemical; design: Reverse Transcriptase of Rauscher Leukemia Virus % Inhibition: concentration or dose not given beside the values; settings: for Reverse Transcriptase of Rauscher Leukemia Virus % Inhibition: 37° C. for 90 minutes (Table 3); for Reverse transcriptase activity, cpm: 37° C. for 90 minutes, control 5396 cpm; for RLV Reverse Transcriptase % Inhibition: at a concentration of 0.25 μmole/ml (Table 4), 90 min
Protocol: *(The reverse transcriptase activity was measured at 37° C. for 90
as §2
**At a concentration of 0.25 μmole/ml.

Sequence of E. coli RNA Polymerase (P0A8V2 whole entry): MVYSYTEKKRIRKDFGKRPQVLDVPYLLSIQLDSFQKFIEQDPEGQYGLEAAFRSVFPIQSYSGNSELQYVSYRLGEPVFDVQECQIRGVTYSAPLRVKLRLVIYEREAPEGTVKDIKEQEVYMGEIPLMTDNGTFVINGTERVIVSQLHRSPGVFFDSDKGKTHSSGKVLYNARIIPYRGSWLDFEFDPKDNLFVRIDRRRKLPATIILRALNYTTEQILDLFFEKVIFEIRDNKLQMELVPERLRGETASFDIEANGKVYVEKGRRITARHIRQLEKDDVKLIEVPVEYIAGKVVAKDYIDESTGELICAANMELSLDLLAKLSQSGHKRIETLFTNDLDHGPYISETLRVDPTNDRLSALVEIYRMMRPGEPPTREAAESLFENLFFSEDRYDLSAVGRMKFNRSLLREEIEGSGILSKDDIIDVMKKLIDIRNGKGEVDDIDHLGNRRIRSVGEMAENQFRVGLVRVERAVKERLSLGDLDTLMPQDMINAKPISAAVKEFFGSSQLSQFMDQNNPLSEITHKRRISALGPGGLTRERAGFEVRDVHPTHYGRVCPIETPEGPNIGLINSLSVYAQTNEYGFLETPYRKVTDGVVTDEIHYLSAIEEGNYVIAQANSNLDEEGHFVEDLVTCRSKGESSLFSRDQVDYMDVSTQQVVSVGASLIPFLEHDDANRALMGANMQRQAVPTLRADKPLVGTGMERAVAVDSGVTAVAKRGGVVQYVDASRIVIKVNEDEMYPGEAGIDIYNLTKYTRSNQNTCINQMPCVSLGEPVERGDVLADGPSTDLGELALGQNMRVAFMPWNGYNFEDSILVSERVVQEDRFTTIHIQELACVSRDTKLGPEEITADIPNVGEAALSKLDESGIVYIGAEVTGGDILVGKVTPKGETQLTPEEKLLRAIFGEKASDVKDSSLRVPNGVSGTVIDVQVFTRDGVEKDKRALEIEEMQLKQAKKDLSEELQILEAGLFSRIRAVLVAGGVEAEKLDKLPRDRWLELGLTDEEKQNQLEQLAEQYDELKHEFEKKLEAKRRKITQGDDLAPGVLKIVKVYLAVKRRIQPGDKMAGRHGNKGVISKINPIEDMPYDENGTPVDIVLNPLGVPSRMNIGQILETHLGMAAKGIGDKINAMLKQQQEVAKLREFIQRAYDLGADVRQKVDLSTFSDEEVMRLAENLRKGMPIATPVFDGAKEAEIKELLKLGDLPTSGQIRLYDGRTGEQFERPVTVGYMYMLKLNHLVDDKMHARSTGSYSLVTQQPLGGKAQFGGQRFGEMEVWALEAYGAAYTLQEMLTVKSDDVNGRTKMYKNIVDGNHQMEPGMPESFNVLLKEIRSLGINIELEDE
Sequence of E. coli RNA Polymerase (P0A8T7 whole entry partner): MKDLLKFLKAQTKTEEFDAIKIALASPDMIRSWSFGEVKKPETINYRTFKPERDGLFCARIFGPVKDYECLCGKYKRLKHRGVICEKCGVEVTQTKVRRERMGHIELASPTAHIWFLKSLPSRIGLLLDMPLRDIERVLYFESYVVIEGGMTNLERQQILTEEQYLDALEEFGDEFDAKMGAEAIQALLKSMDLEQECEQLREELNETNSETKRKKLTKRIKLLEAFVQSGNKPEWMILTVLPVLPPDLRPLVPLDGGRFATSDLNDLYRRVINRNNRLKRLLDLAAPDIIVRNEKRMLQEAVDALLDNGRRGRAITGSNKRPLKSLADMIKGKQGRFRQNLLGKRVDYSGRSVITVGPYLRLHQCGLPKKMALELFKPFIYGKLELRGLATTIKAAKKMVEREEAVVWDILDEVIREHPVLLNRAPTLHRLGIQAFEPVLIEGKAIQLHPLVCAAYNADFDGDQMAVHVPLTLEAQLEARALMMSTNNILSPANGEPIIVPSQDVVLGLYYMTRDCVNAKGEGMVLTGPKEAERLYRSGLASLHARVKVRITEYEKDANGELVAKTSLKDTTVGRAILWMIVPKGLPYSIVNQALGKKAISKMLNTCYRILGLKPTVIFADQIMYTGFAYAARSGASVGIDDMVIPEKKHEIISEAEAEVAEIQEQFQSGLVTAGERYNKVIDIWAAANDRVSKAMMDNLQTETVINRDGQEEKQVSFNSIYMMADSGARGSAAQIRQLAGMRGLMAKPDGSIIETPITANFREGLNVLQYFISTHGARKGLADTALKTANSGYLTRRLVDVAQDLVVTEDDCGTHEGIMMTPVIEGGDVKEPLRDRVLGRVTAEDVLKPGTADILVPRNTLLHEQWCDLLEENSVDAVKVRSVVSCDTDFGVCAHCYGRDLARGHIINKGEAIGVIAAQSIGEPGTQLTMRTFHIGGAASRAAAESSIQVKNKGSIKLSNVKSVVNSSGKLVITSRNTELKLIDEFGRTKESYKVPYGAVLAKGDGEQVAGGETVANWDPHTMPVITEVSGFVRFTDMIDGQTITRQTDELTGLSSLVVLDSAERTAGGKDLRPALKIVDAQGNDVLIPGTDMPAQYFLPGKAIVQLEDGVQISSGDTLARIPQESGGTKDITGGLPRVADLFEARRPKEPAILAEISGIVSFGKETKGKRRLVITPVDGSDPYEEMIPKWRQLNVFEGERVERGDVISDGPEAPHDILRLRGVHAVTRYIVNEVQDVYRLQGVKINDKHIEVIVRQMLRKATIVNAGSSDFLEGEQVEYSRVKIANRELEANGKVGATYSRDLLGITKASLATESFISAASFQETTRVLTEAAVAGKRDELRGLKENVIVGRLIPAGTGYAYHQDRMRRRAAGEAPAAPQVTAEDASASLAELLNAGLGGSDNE
Sequence of E. coli RNA Polymerase (P0A7Z4 whole entry partner): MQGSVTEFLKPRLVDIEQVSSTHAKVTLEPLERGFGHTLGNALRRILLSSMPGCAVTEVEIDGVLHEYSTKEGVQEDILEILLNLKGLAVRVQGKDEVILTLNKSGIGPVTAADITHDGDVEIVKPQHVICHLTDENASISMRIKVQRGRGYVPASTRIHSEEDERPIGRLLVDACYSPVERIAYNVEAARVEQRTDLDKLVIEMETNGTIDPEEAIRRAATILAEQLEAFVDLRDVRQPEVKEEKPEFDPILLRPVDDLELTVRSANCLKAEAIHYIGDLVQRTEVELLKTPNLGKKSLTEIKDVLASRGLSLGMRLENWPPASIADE
Sequence of E. coli RNA Polymerase (P0A800 whole entry partner): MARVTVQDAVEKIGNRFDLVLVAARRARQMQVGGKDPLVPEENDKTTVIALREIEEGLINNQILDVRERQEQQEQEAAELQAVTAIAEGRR

COC1=C2CC(C)CC(OC)C(O)C(C)/C=C(\C)C(OC(N)=O)C(OC)/C=C\C=C(/C)C(=O)NC(=C(C=NC(C)(C)C)C1=O)C2=O (stereo not shown) [Example I]
MIC [1]: 250 µg/mL (≈ 388 µM)
MIC [2]: 500 µg/mL (≈ 777 µM)
MIC [3]: 500 µg/mL (≈ 777 µM)
MIC [4]: 500 µg/mL (≈ 777 µM)
MIC [5]: 250 µg/mL (≈ 388 µM)
MIC [6]: 250 µg/mL (≈ 388 µM)
MIC [7]: 500 µg/mL (≈ 777 µM)
MIC [8]: > 500 µg/mL
remaining activity at 500 µM [9]: 99%
Reverse Transcriptase of Rauscher Leukemia Virus % Inhibition [10]: 93.0%
Reverse transcriptase activity, cpm [10]: 376 cpm

COC1=C2CC(C)CC(OC)C(O)C(C)/C=C(\C)C(OC(N)=O)C(OC)/C=C\C=C(/C)C(=O)NC(=C(C=NOC(c3ccccc3)c3ccccc3)C1=O)C2=O (stereo not shown) [III]
MIC [1]: 62.5 µg/mL (≈ 81.2 µM)
MIC [2]: > 500 µg/mL
MIC [3]: > 500 µg/mL
MIC [4]: > 500 µg/mL
MIC [5]: > 500 µg/mL
MIC [6]: 31.2 µg/mL (≈ 40.5 µM)
MIC [7]: > 500 µg/mL
MIC [8]: > 500 µg/mL
remaining activity at 500 µM [9]: 84%
Reverse Transcriptase of Rauscher Leukemia Virus % Inhibition [10]: 98.6%
Reverse transcriptase activity, cpm [10]: 75 cpm

COC1=C2CC(C)CC(OC)C(O)C(C)/C=C(\C)C(OC(N)=O)C(OC)/C=C\C=C(/C)C(=O)NC(=C(C=NN3CCN(C)CC3)C1=O)C2=O (stereo not shown) [II]
MIC [1]: 500 µg/mL (≈ 729 µM)
MIC [2]: 500 µg/mL (≈ 729 µM)
MIC [3]: 500 µg/mL (≈ 729 µM)
MIC [4]: 500 µg/mL (≈ 729 µM)
MIC [5]: 250 µg/mL (≈ 365 µM)
MIC [6]: 500 µg/mL (≈ 729 µM)
MIC [7]: > 500 µg/mL
MIC [8]: > 500 µg/mL
remaining activity at 500 µM [9]: 106%
Reverse Transcriptase of Rauscher Leukemia Virus % Inhibition [10]: 93.4%
Reverse transcriptase activity, cpm [10]: 357 cpm

CCCCCCCCON=CC1=C2NC(=O)/C(C)=C/C=C\C(OC)C(OC(N)=O)/C(C)=C/C(C)C(O)C(OC)CC(C)CC(=C(OC)C1=O)C2=O (stereo not shown) [IV]
MIC [1]: 7.8 µg/mL (≈ 10.9 µM)
MIC [2]: > 500 µg/mL
MIC [3]: > 500 µg/mL
MIC [4]: > 500 µg/mL
MIC [5]: > 500 µg/mL
MIC [6]: 7.8 µg/mL (≈ 10.9 µM)
MIC [7]: > 500 µg/mL
MIC [8]: > 500 µg/mL
remaining activity at 500 µM [9]: 110%
Reverse Transcriptase of Rauscher Leukemia Virus % Inhibition [10]: 94.4%
Reverse transcriptase activity, cpm [10]: 303 cpm

COC1/C=C\C=C(/C)C(=O)Nc2cc3nc4ccccc4nc3c(c2O)CC(C)CC(OC)C(O)C(C)/C=C(\C)C1OC(N)=O (stereo not shown) [VIII, demethoxygeldanazine]
inhibition at 500 µM [9]: 5 to 16%
RLV Reverse Transcriptase % Inhibition [10]: 98%

COC1=C2CC(C)CC(OC)C(O)C(C)/C=C(\C)C(OC(N)=O)C(OC)/C=C\C=C(/C)C(=O)NC(=C(C=NN3CCN(Cc4ccccc4)CC3)C1=O)C2=O (stereo not shown) [V]
MIC [1]: 62.5 µg/mL (≈ 82 µM)
MIC [2]: 500 µg/mL (≈ 656 µM)
MIC [3]: 500 µg/mL (≈ 656 µM)
MIC [4]: 500 µg/mL (≈ 656 µM)
MIC [5]: 250 µg/mL (≈ 328 µM)
MIC [6]: 125 µg/mL (≈ 164 µM)
MIC [7]: 500 µg/mL (≈ 656 µM)
MIC [8]: 500 µg/mL (≈ 656 µM)
remaining activity at 500 µM [9]: 88%
Reverse Transcriptase of Rauscher Leukemia Virus % Inhibition [10]: 97.1%
Reverse transcriptase activity, cpm [10]: 154 cpm

COC1/C=C\C=C(/C)C(=O)Nc2cc3nc4ccc(C)cc4oc-3c(c2=O)CC(C)CC(OC)C(O)C(C)/C=C(\C)C1OC(N)=O (stereo not shown) [XIII]
inhibition at 500 µM [9]: 21%
RLV Reverse Transcriptase % Inhibition [10]: 77%

COC1/C=C\C=C(/C)C(=O)Nc2cc3nc4cc(C)ccc4oc-3c(c2=O)CC(C)CC(OC)C(O)C(C)/C=C(\C)C1OC(N)=O (stereo not shown) [XII]
inhibition at 500 µM [9]: 9%
RLV Reverse Transcriptase % Inhibition [10]: 89%

COC1/C=C\C=C(/C)C(=O)Nc2cc3nc4cccc(C)c4oc-3c(c2=O)CC(C)CC(OC)C(O)C(C)/C=C(\C)C1OC(N)=O (stereo not shown) [XIV]
inhibition at 500 µM [9]: 6%
RLV Reverse Transcriptase % Inhibition [10]: 72%

COC1/C=C\C=C(/C)C(=O)Nc2cc3nc4ccccc4oc-3c(c2=O)CC(C)CC(OC)C(O)C(C)/C=C(\C)C1OC(N)=O (stereo not shown) [XI]
inhibition at 500 µM [9]: 61 to 67%
RLV Reverse Transcriptase % Inhibition [10]: 98%

COC(=O)[C@@H](NC(=O)c1ccc(C)c2oc3c4c(=O)c(cc-3nc12)NC(=O)/C(C)=C/C=C\C(OC)C(OC(N)=O)/C(C)=C/C(C)C(O)C(OC)CC(C)C4)[C@@H](C)O (stereo partly shown) [XVIII]
RLV Reverse Transcriptase % Inhibition [10]: 0%

COC(=O)c1cccc2oc3c4c(=O)c(cc-3nc12)NC(=O)/C(C)=C/C=C\C(OC)C(OC(N)=O)/C(C)=C/C(C)C(O)C(OC)CC(C)C4 (stereo not shown) [XVII]
RLV Reverse Transcriptase % Inhibition [10]: 0%

COC1/C=C\C=C(/C)C(=O)Nc2cc3nc4cc(Cl)ccc4oc-3c(c2=O)CC(C)CC(OC)C(O)C(C)/C=C(\C)C1OC(N)=O (stereo not shown) [XVI]
RLV Reverse Transcriptase % Inhibition [10]: 60%

COC1/C=C\C=C(/C)C(=O)Nc2cc3nc4cc(Br)ccc4oc-3c(c2=O)CC(C)CC(OC)C(O)C(C)/C=C(\C)C1OC(N)=O (stereo not shown) [XV]
inhibition at 500 µM [9]: 60%
RLV Reverse Transcriptase % Inhibition [10]: 82 - 100%
